Source: PMC10408683, “Dual Blockade of EP2 and EP4 Signaling is Required for Optimal Immune Activation and Antitumor Activity Against Prostaglandin-Expressing Tumors” (Cancer Research Communications, 2023)

What was measured:
Assay type in all cases: cell-based
EP2 = biological target: T1, EP2 (Homo sapiens, UniProt P43116); assay: calcium flux antagonism of PGE2 in HEK293 cells stably expressing EP2 coupled through a promiscuous G protein
T1 construct: gene PTGER2

EP4 [1] = biological target: T2, EP4 (Homo sapiens, UniProt P35408); assay: calcium flux antagonism of PGE2 in HEK293 cells stably expressing EP4 coupled through a promiscuous G protein
T2 construct: gene PTGER4

EP4 [2] = biological target: T2, EP4; assay: calcium flux assay in HEK293-based cells stably expressing human EP4

T2 sequence (P35408 whole entry): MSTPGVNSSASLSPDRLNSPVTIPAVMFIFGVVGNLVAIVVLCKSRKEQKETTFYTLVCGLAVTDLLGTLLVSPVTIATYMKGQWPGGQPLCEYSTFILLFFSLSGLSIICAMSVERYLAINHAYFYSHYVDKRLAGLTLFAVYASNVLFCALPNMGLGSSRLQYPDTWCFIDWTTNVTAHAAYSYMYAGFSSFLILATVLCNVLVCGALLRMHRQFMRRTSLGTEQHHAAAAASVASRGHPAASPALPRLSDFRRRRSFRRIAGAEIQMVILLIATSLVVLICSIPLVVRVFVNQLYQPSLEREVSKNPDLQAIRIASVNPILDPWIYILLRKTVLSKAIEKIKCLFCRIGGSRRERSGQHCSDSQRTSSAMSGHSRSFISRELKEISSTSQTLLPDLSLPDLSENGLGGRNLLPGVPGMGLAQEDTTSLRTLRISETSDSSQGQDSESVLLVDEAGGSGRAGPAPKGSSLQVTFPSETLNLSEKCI
T1 sequence (P43116 whole entry): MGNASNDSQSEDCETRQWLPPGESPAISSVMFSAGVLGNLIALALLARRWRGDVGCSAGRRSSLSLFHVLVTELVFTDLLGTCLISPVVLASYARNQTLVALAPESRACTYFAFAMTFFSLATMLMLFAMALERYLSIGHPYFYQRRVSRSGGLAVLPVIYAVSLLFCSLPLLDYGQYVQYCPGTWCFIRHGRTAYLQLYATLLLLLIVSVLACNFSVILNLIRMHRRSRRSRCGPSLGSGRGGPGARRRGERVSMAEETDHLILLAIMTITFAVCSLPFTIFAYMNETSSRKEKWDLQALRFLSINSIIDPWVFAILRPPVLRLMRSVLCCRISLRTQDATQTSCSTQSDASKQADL

IC50 (EP2) [nM] | IC50 (EP4 [1]) [nM] | IC50 (EP4 [2]) [nM] | Substance
17.2 | 3.24 | – | TPST-1495
– | – | 0.4 | TPST-7131
